US20250122257A1, “USE OF KININ OR DERIVATIVE THEREOF IN TREATING VCI, PSCI, OR CSVD” (ZonHon Biopharma Institute, Inc., priority 2022, published 2025)
Like-named read-outs stand apart in the source and are kept apart here. Square brackets hold non-standard residues; d marks the D form. Ends that are not written are not given here. Peptide text beside a SMILES is read from it. 2Thi = N[C@@H](Cc1cccs1)C(=O)O

Experiments:
[1] = in vivo, cited from earlier work
B2 receptor = target: T1, B2 receptor (Homo sapiens, UniProt P30411); test: Affinity activity to B2 receptor, reporter gene assay in B2-NFAT-CHO-K1 cells; assay type: cell-based; conditions: relative activity calculated from EC50, 5 hours
T1 construct: expressed in transfected cells
T1 sequence (P30411 1-391): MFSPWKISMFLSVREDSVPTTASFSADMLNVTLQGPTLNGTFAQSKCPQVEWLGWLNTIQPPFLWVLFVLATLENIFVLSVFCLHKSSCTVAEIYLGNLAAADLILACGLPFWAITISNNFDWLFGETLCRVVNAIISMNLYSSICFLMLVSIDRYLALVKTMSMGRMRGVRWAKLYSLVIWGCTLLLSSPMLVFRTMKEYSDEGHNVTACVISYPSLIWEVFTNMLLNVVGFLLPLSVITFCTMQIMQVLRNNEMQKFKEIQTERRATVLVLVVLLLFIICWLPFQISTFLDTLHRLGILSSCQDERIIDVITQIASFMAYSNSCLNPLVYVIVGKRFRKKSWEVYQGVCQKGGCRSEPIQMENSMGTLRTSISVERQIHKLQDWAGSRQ
Experimental: The cell line B2-NFAT-CHO-K1 stably transfected with B2 receptor reporter gene was constructed based on CHO-K1 host cells and the cell library was constructed. The B2-NFAT-CHO-K1 cell library was used to evaluate the binding activity of lysyl bradykinin/bradykinin or its variants or PEG modified products to B2 receptor in vitro.
Detection methods: The cells were cultured in 96-well plates at 5×10^4cells/well, 37° C., 5% CO2 for 16-20 hours, and then gradient diluted standard and test solutions were added. After 5 hours, added Bio-Lite luciferase detection reagent and the chemiluminescence intensity was measured. GraphPad was used to make four-parameter equation curve and calculate the relative activity according to the EC50 value.
(§1) In vitro B2-receptor affinity activity and activity of activating downstream signaling pathway of PEG conjugates of lysyl bradykinin and its variants were tested, as in Example 3.

[2] = system: B2 receptor downstream signals p-CREB and p-ERK1/2; test: Phosphorylation of downstream ERK1/2 and CREB by WB in CHO-K1 (B2R+) cells; assay type: cell-based; conditions: FIG. 3, WB
Experimental: as §1

NC(N)=NCCC[C@H](NC(=O)[C@H](Cc1ccccc1)NC(=O)[C@@H]1CCCN1C(=O)[C@H](CO)NC(=O)[C@H](Cc1ccccc1)NC(=O)CNC(=O)[C@@H]1CCCN1C(=O)[C@@H]1CCCN1C(=O)[C@@H](N)CCCN=C(N)N)C(=O)O [BK, bradykinin] (H-RPPGFSPFR-OH)
Half-life ([1]; reported): only seconds

NCCCC[C@H](N)C(=O)N[C@@H](CCCN=C(N)N)C(=O)N1CCC[C@H]1C(=O)N1CCC[C@H]1C(=O)NCC(=O)N[C@@H](Cc1ccccc1)C(=O)N[C@@H](CO)C(=O)N1CCC[C@H]1C(=O)N[C@@H](Cc1ccccc1)C(=O)N[C@@H](CCCN=C(N)N)C(=O)O [Lys-BK, lysyl bradykinin]
Half-life [1]: only seconds

Lys-BKm08: PG{THI}SPFR, SEQ ID NO 9 (PG[2Thi]SPFR)
Relative affinity activity to B2 receptor (B2 receptor): <10%

Lys-BKm09: {THI}SPFR, SEQ ID NO 10 ([2Thi]SPFR)
Relative affinity activity to B2 receptor (B2 receptor): 0%

Lys-BKm10: SPFR, SEQ ID NO 11
Relative affinity activity to B2 receptor (B2 receptor): 0%

Lys-BKm13-SPA5K: Lys-BKm13 modified with SPA5K PEG (CRRPPG[2Thi]SPFR; also: modified with SPA5K PEG, site not given here)
Activity of PEG conjugates in activating phosphorylation of ERK1/2 and CREB (in words) [2]: highest activity among different peptide variants
